This note sets out measurements from patent US20140113899A1 (priority 2011, published 2014).

For one experiment, the system named is Gaeumannomyces graminis. Put plainly: Test Example 13: in vitro antimicrobial activity test with prochloraz and Compound I-1. The class given is cell-based. An excerpt: Then, a mycelial growth inhibition ratio against Gaeumannomyces graminis was obtained.
Experiment [1] deals with Pyricularia oryzae. Format: cell-based.
The test system of the next experiment is Puccinia recondida. In words: Test Example 7: controlling effect of isopyrazam and Compound I-1 on wheat brown rust. Format: in vivo. Conditions: Isopyrazam 3.125 g/ha alone. As to the method: Isopyrazam and Compound I-1 were mixed at a given ratio and a test for a cooperative effect against wheat brown rust was carried out. First, a chemical suspension containing isopyrazam and Compound I-1 were prepared and sprayed on a pot of a wheat plant at two leaves stage so that thus sprayed isopyrazam and Compound I-1 became a predetermined dosage. Then, after the pot was left for approximately one hour at a room temperature so that the plant body dries, Puccinia recondida was inoculated by spraying an urediniospore suspended solution (1×10^5/ml) of Puccinia recondida. Then, the pot was kept in a wet chamber at 20° C. for 15 hours, and after 14 days, onset of disease was examined by a disease-onset area index. Here, the test was conducted by use of one plot pot.

The subject of experiment [2] is Fusarium graminearum. Format: in vivo.
For experiment [3], the system named is Fusarium graminearum. Format: in vivo. This is another data set of the same source.
A further experiment concerns Rhizoctonia solani. Put plainly: Test Example 18: in vitro antimicrobial activity test with chlorothalonil and Compound I-1. The class given is cell-based.
Experiment [4] relates to Fusarium graminearum. Format: in vivo. The source holds these as a separate data set.
For experiment [5], the system named is Pyricularia oryzae. Format: cell-based. This is another data set of the same source.
In a further experiment the test system is Botrytis cinere. In words: Test Example 11: in vitro antimicrobial activity test with azoxystrobin and Compound I-1. The class given is cell-based. An excerpt: Then, a mycelial growth inhibition ratio against Botrytis cinere was obtained.
The subject of the next experiment is Glomerella cingulata. Put plainly: Test Example 4: in vitro antimicrobial activity test with bixafen and Compound I-1. Format: cell-based.
Another experiment has as its system Pythium aphanidermatum. Put plainly: Test Example 19: in vitro antimicrobial activity test with metalaxyl and Compound I-1. Format: cell-based.
The test system of a further experiment is Alternaria alternata. In words: Test Example 15: in vitro antimicrobial activity test with fenpropimorph and Compound I-1. The class given is cell-based. An excerpt:
Then, a mycelial growth inhibition ratio against Alternaria alternata was obtained.

Experiment [6] has as its system Microdocum nivale. Put plainly: Test Example 14: in vitro antimicrobial activity test with prothioconazole and Compound I-1.
Experiment [7] relates to Fusarium graminearum. Format: in vivo. Conditions: wettable powder containing only the compound, 500 mg/L, sprayed at 1,000 L/ha; fourth to seventh days after inoculation.
The subject of experiment [8] is Microdocum nivale. In words: Test Example 9: in vitro antimicrobial activity test with benodanil and Compound I-1.
Protocol: (§1) In the test, a flora disk of 4 mm in diameter was cut from an area around a colony of Microdocum nivale pre-cultured in advance in a pre-culture PDA medium, and Microdocum nivale was inoculated on the PDA medium where chemical agents were mixed. After culturing at 25° C. for 3 days, a diameter of a grown colony was measured. Then, a mycelial growth inhibition ratio was calculated by comparing the diameter of this grown colony with a diameter of a colony on a medium without the chemical agents. As in Test Example 1, a cooperative effect was judged by use of Colby's formula.
Experiment [9] has as its system Microdocum nivale. Put plainly: Test Example 10: in vitro antimicrobial activity test with penthiopyrad and Compound I-1.
Protocol: as §1
Then, a mycelial growth inhibition ratio against Microdocum nivale was obtained.
The test system of experiment [10] is Pseudocercoporella herpotrichoides. Put plainly: Test Example 16: in vitro antimicrobial activity test with thiophanate-methyl and Compound I-1. The class given is cell-based.
Setting [11] is: compound 25 g/ha alone (Metconazole 0 g/ha).
Where [12] appears, read: compound 50 g/ha alone (Metconazole 0 g/ha).
Where [13] appears, read: compound 75 g/ha alone (Metconazole 0 g/ha).

The structures appear in SMILES notation. Like-named read-outs stand apart in the source and are kept apart here. Where only a bound is given, the exact number is not on record here.

For `CCCN(CCOc1c(Cl)cc(Cl)cc1Cl)C(=O)n1ccnc1` [Prochloraz], the “Mycelial Growth Inhibition Ratio % Measured Value” was 12% with Gaeumannomyces graminis (Prochloraz 0.0393 ppm alone), 69% in the experiment with Gaeumannomyces graminis (Prochloraz 0.1575 ppm alone) and 98% in the experiment on Gaeumannomyces graminis (Prochloraz 0.63 ppm alone).
Take `CC(C)(C)C(O)(CCc1ccc(Cl)cc1)Cn1cncn1` (stereo not drawn) [Tebuconazole]: the figures for the “Mycelial Growth Inhibition Ratio % Measured Value” in the experiment on Pyricularia oryzae [1] (Tebuconazole 0.0393 ppm alone), in the experiment on Pyricularia oryzae [1] (Tebuconazole 0.1575 ppm alone) and in the experiment with Pyricularia oryzae [1] (Tebuconazole 0.63 ppm alone) were 3%, 12% and 50%, respectively.
On to `CC(C)C1C2CCC1c1c(NC(=O)c3cn(C)nc3C(F)F)cccc12` (stereo not drawn) [Isopyrazam], for which the “Actual Protective Value” with Puccinia recondida is 57.
As to `COC(=O)N(OC)c1ccccc1COc1ccn(-c2ccc(Cl)cc2)n1` [Pyraclostrobin], the “Actual Protective Value” is listed as 10.6 with Fusarium graminearum [2] (Pyraclostrobin 10 g/ha alone), 23.5 with Fusarium graminearum [2] (Pyraclostrobin 20 g/ha alone) and 36.5 with Fusarium graminearum [2] (Pyraclostrobin 30 g/ha alone).
Turning to `C[C@]1(CCl)CC[C@@H](Cc2ccc(F)cc2)[C@]1(O)Cn1cncn1` (racemic) [Compound I-11, (1RS,2SR,5 SR)-2-chloromethyl-5-(4-fluorobenzyl)-2-methyl-1-(1H-1,2,4-triazole-1-ylmethyl)cyclopentanol], the results for the “Actual Protective Value” with Fusarium graminearum [3] (setting [11]), with Fusarium graminearum [3] (setting [12]) and in the experiment on Fusarium graminearum [3] (setting [13]) were 25.6, 56.7 and 66.7, respectively.
In the case of `N#Cc1c(Cl)c(Cl)c(Cl)c(C#N)c1Cl` [Chlorothalonil], the “Mycelial Growth Inhibition Ratio % Measured Value” was 0% in the experiment on Rhizoctonia solani (Chlorothalonil 0.0393 ppm alone); 15% with Rhizoctonia solani (Chlorothalonil 0.1575 ppm alone); 74% with Rhizoctonia solani (Chlorothalonil 0.63 ppm alone); 84% in the experiment with Rhizoctonia solani (Chlorothalonil 2.5 ppm alone); 98% in the experiment on Rhizoctonia solani (Chlorothalonil 10 ppm alone).
With `O=C(Nc1ccccc1-c1ccc(Cl)cc1)c1cccnc1Cl` [Boscalid], the “Actual Protective Value” with Fusarium graminearum [4] (Boscalid 20 g/ha alone) was 0; in the experiment on Fusarium graminearum [4] (Boscalid 40 g/ha alone), 4; in the experiment on Fusarium graminearum [4] (Boscalid 60 g/ha alone) it was 15; in the experiment with Fusarium graminearum [4] (Boscalid 80 g/ha alone), 8.
With `CC(C)C1CCC(Cc2ccc(Cl)cc2)C1(O)Cn1cncn1` (stereo not drawn) [Ipconazole], the “Mycelial Growth Inhibition Ratio % Measured Value” came out at 11% in the experiment with Pyricularia oryzae [5] (Ipconazole 0.0393 ppm alone), 33% in the experiment on Pyricularia oryzae [5] (Ipconazole 0.1575 ppm alone) and 72% with Pyricularia oryzae [5] (Ipconazole 0.63 ppm alone).
`C[C@]1(CCl)CC[C@@H](Cc2ccccc2)[C@]1(O)Cn1cncn1` (racemic) [Compound I-12, (1RS,2SR,5SR)-2-chloromethyl-5-benzyl-2-methyl-1-(1H-1,2,4-triazole-1-ylmethyl)cyclopentanol]: the entries for the “Actual Protective Value” in the experiment on Fusarium graminearum [3] (setting [11]), with Fusarium graminearum [3] (setting [12]) and in the experiment with Fusarium graminearum [3] (setting [13]) were 40.0, 65.6 and 75.6, respectively.
With `CC1(C)CCC(Cc2ccc(Cl)cc2)C1(O)Cn1cncn1` (stereo not drawn) [Metconazole], the “Actual Protective Value” came out at 13.9 in the experiment on Fusarium graminearum [3] (Metconazole 10 g/ha alone) and 26.7 in the experiment on Fusarium graminearum [3] (Metconazole 20 g/ha alone).
`CO/C=C(/C(=O)OC)c1ccccc1Oc1cc(Oc2ccccc2C#N)ncn1` [Azoxystrobin]: the “Mycelial Growth Inhibition Ratio % Measured Value” in the experiment on Botrytis cinere (Azoxystrobin 0.1575 ppm alone) is given as 41%; in the experiment with Botrytis cinere (Azoxystrobin 0.63 ppm alone) it was 60%; in the experiment on Botrytis cinere (Azoxystrobin 2.5 ppm alone), 69%; in the experiment with Botrytis cinere (Azoxystrobin 10 ppm alone), 71%.
For `Cn1cc(C(=O)Nc2ccc(F)cc2-c2ccc(Cl)c(Cl)c2)c(C(F)F)n1` [Bixafen], the “Mycelial Growth Inhibition Ratio % Measured Value” came out at 5% in the experiment with Glomerella cingulata (Bixafen 0.0393 ppm alone); 7% with Glomerella cingulata (Bixafen 0.1575 ppm alone); 7% in the experiment on Glomerella cingulata (Bixafen 0.63 ppm alone); 16% in the experiment on Glomerella cingulata (Bixafen 2.5 ppm alone); 38% in the experiment on Glomerella cingulata (Bixafen 10 ppm alone).
Regarding `COCC(=O)N(c1c(C)cccc1C)C(C)C(=O)OC` (stereo not drawn) [Metalaxyl], the “Mycelial Growth Inhibition Ratio % Measured Value” in the experiment on Pythium aphanidermatum (Metalaxyl 0.0393 ppm alone) was determined as 3%; with Pythium aphanidermatum (Metalaxyl 0.1575 ppm alone), 7%; in the experiment on Pythium aphanidermatum (Metalaxyl 0.63 ppm alone), 12%; in the experiment with Pythium aphanidermatum (Metalaxyl 2.5 ppm alone), 14%; in the experiment on Pythium aphanidermatum (Metalaxyl 10 ppm alone), 25%.
As for `CC(Cc1ccc(C(C)(C)C)cc1)CN1C[C@@H](C)O[C@@H](C)C1` (stereo partly drawn) [Fenpropimorph], the “Mycelial Growth Inhibition Ratio % Measured Value” with Alternaria alternata (Fenpropimorph 0.0393 ppm alone) and in the experiment with Alternaria alternata (Fenpropimorph 0.1575 ppm alone) was 0% in each case.
Take `OC(Cc1ccccc1Cl)(Cn1nc[nH]c1=S)C1(Cl)CC1` (stereo not drawn) [Prothioconazole]: the “Mycelial Growth Inhibition Ratio % Measured Value” with Microdocum nivale [6] (Prothioconazole 0.1575 ppm alone) turned out to be 11%; in the experiment with Microdocum nivale [6] (Prothioconazole 0.63 ppm alone), 34%; with Microdocum nivale [6] (Prothioconazole 2.5 ppm alone), 76%.
For `OC(CC1CC1(Br)Br)(Cn1cncn1)C1(Cl)CC1` (stereo not drawn) [Compound XVII-2, 2-(1-chlorocyclopropyl)-1-(2,2-dibromocyclopropyl)-3-(1H-1,2,4-triazole-1-yl)propane-2-ol], the protective value in the experiment with Fusarium graminearum [7] was at least 90%.
With `O=C(Nc1ccccc1)c1ccccc1I` [Benodanil], the “Mycelial Growth Inhibition Ratio % Measured Value” with Microdocum nivale [8] (Benodanil 0.0393 ppm alone) was determined as 0%; with Microdocum nivale [8] (Benodanil 0.1575 ppm alone), 0%; in the experiment with Microdocum nivale [8] (Benodanil 0.63 ppm alone), 0%; with Microdocum nivale [8] (Benodanil 2.5 ppm alone) it was 0%; with Microdocum nivale [8] (Benodanil 10 ppm alone), 4%.
With `CC(C)CC(C)c1sccc1NC(=O)c1cn(C)nc1C(F)(F)F` (stereo not drawn) [Penthiopyrad], the “Mycelial Growth Inhibition Ratio % Measured Value” in the experiment with Microdocum nivale [9] (Penthiopyrad 0.0393 ppm alone) was 2%; in the experiment on Microdocum nivale [9] (Penthiopyrad 0.1575 ppm alone) it was 2%; in the experiment with Microdocum nivale [9] (Penthiopyrad 0.63 ppm alone) it was 2%; in the experiment with Microdocum nivale [9] (Penthiopyrad 2.5 ppm alone), 7%; with Microdocum nivale [9] (Penthiopyrad 10 ppm alone) it was 36%.
Consider `COC(=O)NC(=S)Nc1ccccc1NC(=S)NC(=O)OC` [Thiophanate-methyl], for which the figures for the “Mycelial Growth Inhibition Ratio % Measured Value” in [10] (Thiophanate-methyl 0.0393 ppm alone), in experiment [10] (Thiophanate-methyl 0.1575 ppm alone) and in [10] (Thiophanate-methyl 0.63 ppm alone) were 0%, 0% and 52%, respectively.
